Results as given in PMC3334918, “Mutagenesis and Functional Studies with Succinate Dehydrogenase Inhibitors in the Wheat Pathogen Mycosphaerella graminicola” (PLoS ONE, 2012).

Columns and labels:
[1] = tested on: wild type IPO323 M. graminicola strain; format: cell-based, Mycosphaerella graminicola; settings: minimal concentration to fully inhibit growth of WT IPO323, AE agar, 10^7 cells, 2 weeks at 20°C in the dark
Text: (§1) Selection plates were produced after adding 1% of a 100× DMSO solution of the active ingredients to pre-melted AE-agar.

[2] = tested on: M. graminicola isolate IPO323; assay: UV mutagenesis and selection of resistant colonies on carboxamide amended AE agar; format: cell-based, Mycosphaerella graminicola
Protocol: as §1
Cells were harvested from 4 days old V8 agar plates and conidial cells were suspended in liquid AE. 10^7 cells were spread onto carboxamide amended AE agar plates and mutagenized using UV Stratalinker 2400 (Stratagene) with 75 mJ cm^−2 or 50 mJ cm^−2. […] Selection plates were incubated in the dark at 20°C for 14 days. Visible colonies were picked from the primary selection plate and re-grown on fresh selection media for 2 additional weeks under the same conditions.

[3] = tested on: M. graminicola strain Cbx28 (SDHB_H267Y); assay: in vivo sensitivity, liquid culture growth (AE media); format: cell-based, Mycosphaerella graminicola; settings: M. graminicola SDHB_H267Y; compound A: data not shown
Protocol: (§2) To explore the sensitivity profiles conferred by amino acid substitutions at the cellular and mitochondrial level, we determined sensitivity towards 4 different compounds for 26 of the identified substitution types both in vivo using liquid culture growth (AE media) and in vitro using purified mitochondria and the succinate: Q0/DCPIP activity test (Table 3). […] Resistance factors (RF) were determined as the ratio IC50mutant/IC50WT. […] Qp site mutations are well known to influence SDH enzyme activity and stability upon catalysis, [13], [38], [41].
(§3) Conidial cells were collected from 4 day old V8 agar plates (cultured at 18°C in the dark) using liquid AE and a cell spreader. Cell density was determined and cells re-suspended to a concentration of 5×10^5 cells ml^−1 in AE media. Sterile 96 wells microtiter plates with lids (Costar) were inoculated with 198 µl of this cell suspension (10^5 cells per well) and 2 µl of inhibitor (100× in DMSO). Final inhibitor concentrations were between 0.95 nM and 1 mM with uniform 4× dilution factor steps (11 inhibitor concentrations+1 DMSO control). Plates were incubated for 6 days at 19°C in the dark before cells were re-suspended and measured for growth (OD600 nm). IC50 values were determined by non linear curve fitting on the basis of measured OD values versus log inhibitor concentrations (GraphPad Prism 5.0 software).

[4] = tested on: M. graminicola WT (IPO323); assay: microbe, parasite or virus in culture; format: cell-based, Mycosphaerella graminicola; settings: Zymoseptoria tritici; WT (IPO323), liquid culture growth, ±S.E. (triplicate); read-out: IC50 in vivo
Protocol: as §2, §3

[5] = molecular target: succinate dehydrogenase (SDH), WT (IPO323) (Zymoseptoria tritici (Mycosphaerella graminicola), UniProt F9X9V6+F9XG45+F9XH52); assay: in vitro succinate: Q0/DCPIP activity test, purified mitochondria; format: biochemical; settings: read-out: IC50 in vitro, ±S.E. (triplicate)
succinate dehydrogenase (SDH), WT (IPO323), sequence (F9XG45 entry or part of it): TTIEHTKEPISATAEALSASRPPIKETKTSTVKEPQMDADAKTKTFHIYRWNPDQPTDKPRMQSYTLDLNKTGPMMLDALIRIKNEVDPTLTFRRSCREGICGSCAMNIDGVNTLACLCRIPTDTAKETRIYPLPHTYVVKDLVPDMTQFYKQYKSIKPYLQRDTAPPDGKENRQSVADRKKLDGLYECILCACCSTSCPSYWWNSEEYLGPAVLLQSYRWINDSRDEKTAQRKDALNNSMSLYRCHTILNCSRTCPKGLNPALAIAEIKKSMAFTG
succinate dehydrogenase (SDH), WT (IPO323), sequence (F9X9V6 entry or part of it): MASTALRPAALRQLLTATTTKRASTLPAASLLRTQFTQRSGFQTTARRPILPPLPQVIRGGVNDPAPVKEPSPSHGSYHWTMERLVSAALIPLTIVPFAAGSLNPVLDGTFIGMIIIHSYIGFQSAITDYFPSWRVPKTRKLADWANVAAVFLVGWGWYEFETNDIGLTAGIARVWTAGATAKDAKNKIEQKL
succinate dehydrogenase (SDH), WT (IPO323), sequence (F9XH52 entry or part of it): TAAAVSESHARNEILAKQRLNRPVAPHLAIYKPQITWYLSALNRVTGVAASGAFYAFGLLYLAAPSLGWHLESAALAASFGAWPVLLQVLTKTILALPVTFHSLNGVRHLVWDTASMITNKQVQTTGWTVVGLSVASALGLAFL
Protocol: as §2
Strains were grown in 1 liter TSM40 units. Cultures were inoculated at 0.05 OD600 nm and grown on a reciprocal shaker (110 rpm, 22°C) for 5 days. Cells were harvested by vacuum filtration and disrupted in liquid nitrogen using a mortar and pestle. Resultant powder was re-suspended to 10% w/v in mitochondrial extraction buffer (10 mM KHPO4 pH7.2; 10 mM KCl, 10 mM MgCl2, 0.5 M sucrose, 0.2 mM EDTA, 2 mM PMSF). Extract was clarified by centrifugation (5,000 g, 4°C for 10 minutes, 2 times), intact mitochondria were then pelleted at 10,000 g for 20 minutes at 4°C. […] This volume was transferred to conical 1.5 ml tubes and re-centrifuged, 10,000 g for 10 minutes at 4°C. […] Mitochondrial suspensions were brought to a final concentration of 10 mg ml^−1 in extraction buffer and stored at −80°C until used.
Mitochondrial suspensions were incubated at 30°C for 30 minutes in extraction buffer supplemented with 10 mM succinate prior to enzymatic measurements.
A reaction plate was equilibrated for 10 minutes at 30°C before starting the reaction. DCPIP reduction was conducted at 30°C and monitored at 595 nm using a HTS7000 microtiterplate reader (Perkin Elmer). For calculations a molecular extinction coefficient of ε = 17 mM^−1 cm^−1 was used.
Inhibitor concentrations ranged between 1 mM and 0.95 nM with uniform 4× dilution factor steps (11 inhibitor concentrations+DMSO control). 96 wells plates were pre equilibrated at reaction temperature (30°C) for 10 minutes before the reactions were started by the addition of 5 µl preactivated M. graminicola mitochondrial suspension. Calculated absorbance slopes (OD/hour) were used for IC50 calculations using Graphpad Prism 5.0 software non linear curve fitting against log inhibitor concentrations.

[6] = examination of supplemented AE agar plates for precipitate; format: physicochemical; settings: AE agar plates supplemented with 150 µM (5×MSC), developed over time

CC(C)C1C2CCC1c1c(NC(=O)c3cn(C)cc3C(F)(F)F)cccc12 (centres unmarked) [compound A]
Minimal selective concentration (MSC) [1]: compound A 100 µM (MSC) | Frequency (of resistance development) ([2]; selection at MSC, UV treatment 50 mJ cm^−2): 1.4E-07 | Frequency (of resistance development) ([2]; selection at MSC, UV treatment 75 mJ cm^−2): 2.1E-07 | Frequency (of resistance development) ([2]; selection at […] MSC, UV treatment 50 mJ cm^−2): 2.1E-07 | Frequency (of resistance development) ([2]; selection at […] MSC, UV treatment 75 mJ cm^−2): 1.9E-07 | sensitivity / control of the SDHB_H267Y mutant compared to the WT [3]: better control

O=C(NCCc1ncc(C(F)(F)F)cc1Cl)c1ccccc1C(F)(F)F [Fluopyram]
IC50 [4]: 584 ± 100 nM | sensitivity / control of the SDHB_H267Y mutant compared to the WT [3]: hypersensitivity | IC50 [5]: 44 ± 2.2 nM

CC1=C(C(=O)Nc2ccccc2)SCCO1 [Carboxin]
IC50 [4]: 6470 ± 1080 nM | IC50 [5]: 1160 ± 102 nM

O=C(Nc1ccccc1-c1ccc(Cl)cc1)c1cccnc1Cl [Boscalid]
IC50 [4]: 455 ± 47 nM | IC50 [5]: 60 ± 1.8 nM | precipitation in the media [6]: white precipitate
